ChEMBL document CHEMBL2385074, “Structure-activity relationship analysis of bufadienolide-induced in vitro growth inhibitory effects on mouse and human cancer cells” (J Nat Prod, 2013)
The source made the active and inactive calls. The calls are words filed in the database; no cut-off is given here.

Legend:
A549 [1] = test: Cytotoxicity against human A549 cells after 3 days by MTT assay; format: functional, cell-based; conditions: A549, 72 h
[2] = Cytotoxicity against human Hs683 cells after 3 days by MTT assay; format: functional, cell-based; conditions: Hs 683, 72 h
[3] = Cytotoxicity against mouse CT26.WT cells after 3 days by MTT assay; format: functional, cell-based; conditions: 72 h
[4] = Cytotoxicity against human U373 cells after 3 days by MTT assay; format: functional, cell-based, U-373MG ATCC; conditions: U373 MG, 72 h
SK-MEL-28 [5] = test: Cytotoxicity against human SK-MEL-28 cells after 3 days by MTT assay; format: functional, cell-based; conditions: SK-MEL-28, 72 h
B16-F10 [6] = test: Cytotoxicity against mouse B16F10 cells after 3 days by MTT assay; format: functional, cell-based; conditions: B16-F10, 72 h
MCF7 [7] = test: Cytotoxicity against human MCF7 cells after 3 days by MTT assay; format: functional, cell-based; conditions: MCF7, 72 h
PC-3 [8] = test: Cytotoxicity against human PC3 cells after 3 days by MTT assay; format: functional, cell-based; conditions: PC-3, 72 h
A549 [9] = test: Cytotoxicity against human A549 cells at <= 10 uM after 3 days by MTT assay; format: functional, cell-based
SK-MEL-28 [10] = test: Cytotoxicity against human SK-MEL-28 cells at <= 10 uM after 3 days by MTT assay; format: functional, cell-based
U-373MG ATCC = test: Cytotoxicity against human U373 cells at <= 10 uM after 3 days by MTT assay; format: functional, cell-based
B16-F10 [11] = test: Cytotoxicity against mouse B16F10 cells at <= 10 uM after 3 days by MTT assay; format: functional, cell-based
Hs 683 = test: Cytotoxicity against human Hs683 cells at <= 10 uM after 3 days by MTT assay; format: functional, cell-based
PC-3 [12] = test: Cytotoxicity against human PC3 cells at <= 10 uM after 3 days by MTT assay; format: functional, cell-based
MCF7 [13] = test: Cytotoxicity against human MCF7 cells at <= 10 uM after 3 days by MTT assay; format: functional, cell-based
CT26.WT = test: Cytotoxicity against mouse CT26.WT cells at <= 10 uM after 3 days by MTT assay; format: functional, cell-based

CC(=O)O[C@H]1C[C@]2(O)[C@@H]3CC[C@@H]4C[C@@H](O)CC[C@]4(C)[C@H]3CC[C@]2(C)[C@H]1c1ccc(=O)oc1 [BUFOTALIN]
IC50 (A549 [1]): 14 nM | IC50 [2]: 9 nM | IC50 [3]: > 10000 nM | IC50 [4]: 74 nM | IC50 (SK-MEL-28 [5]): 65 nM | IC50 (B16-F10 [6]): > 10000 nM | IC50 (MCF7 [7]): 37 nM | IC50 (PC-3 [8]): 34 nM

COC(=O)[C@H]1CC[C@]2(OC=O)[C@@H]3CC[C@@H]4C[C@@H](OC(C)=O)CC[C@]4(C)[C@H]3[C@H](OC(C)=O)C(=O)[C@]12C
Activity (A549 [9]): inactive | Activity (SK-MEL-28 [10]): inactive | Activity (U-373MG ATCC): inactive | Activity (B16-F10 [11]): inactive | Activity (Hs 683): inactive | Activity (PC-3 [12]): inactive | Activity (MCF7 [13]): inactive | Activity (CT26.WT): inactive

C[C@@H]1O[C@@H](O[C@H]2C[C@@H](O)[C@]3(CO)[C@H]4[C@H](O)C[C@]5(C)[C@@H](C6=CC(=O)OC6)CC[C@]5(O)[C@@H]4CC[C@]3(O)C2)[C@H](O)[C@H](O)[C@H]1O [OUABAIN]
IC50 (A549 [1]): 27 nM | IC50 [2]: 28 nM | IC50 [3]: > 10000 nM | IC50 [4]: 77 nM | IC50 (SK-MEL-28 [5]): 211 nM | IC50 (B16-F10 [6]): > 10000 nM | IC50 (MCF7 [7]): 133 nM | IC50 (PC-3 [8]): 43 nM

CC(=O)O[C@H]1CC[C@@]2(C=O)[C@H](CC[C@@H]3[C@@H]2CC[C@]2(C)[C@@H](c4ccc(=O)oc4)C[C@H]4O[C@]342)C1
IC50 (A549 [1]): 7140 nM | IC50 [2]: 3660 nM | IC50 [3]: > 10000 nM | IC50 [4]: 7050 nM | IC50 (SK-MEL-28 [5]): > 10000 nM | IC50 (B16-F10 [6]): > 10000 nM | IC50 (MCF7 [7]): > 10000 nM | IC50 (PC-3 [8]): 5340 nM

COC(=O)[C@H]1[C@@H](O)[C@H]2O[C@]23[C@@H]2CC[C@@H]4C[C@@H](OC(C)=O)CC[C@]4(C)[C@H]2CC[C@]13C
Activity (A549 [9]): inactive | Activity (SK-MEL-28 [10]): inactive | Activity (U-373MG ATCC): inactive | Activity (B16-F10 [11]): inactive | Activity (Hs 683): inactive | Activity (PC-3 [12]): inactive | Activity (MCF7 [13]): inactive | Activity (CT26.WT): inactive

COC(=O)[C@H]1CC[C@]2(O)[C@@H]3CC[C@@H]4C[C@@H](OC(C)=O)CC[C@]4(C)[C@H]3[C@H](OC(C)=O)C(=O)[C@]12C
Activity (A549 [9]): inactive | Activity (SK-MEL-28 [10]): inactive | Activity (U-373MG ATCC): inactive | Activity (B16-F10 [11]): inactive | Activity (Hs 683): inactive | Activity (PC-3 [12]): inactive | Activity (MCF7 [13]): inactive | Activity (CT26.WT): inactive

C[C@@H]1O[C@@H](O[C@H]2CC[C@@]3(C)[C@H](CC[C@@H]4[C@@H]3[C@H](O)C[C@]3(C)[C@@H](c5ccc(=O)oc5)CC[C@]43O)C2)[C@H](O)[C@H](O)[C@H]1O
IC50 (A549 [1]): < 1 nM | IC50 [2]: 2 nM | IC50 [3]: 877 nM | IC50 [4]: 3 nM | IC50 (SK-MEL-28 [5]): 5 nM | IC50 (B16-F10 [6]): 659 nM | IC50 (MCF7 [7]): 8 nM | IC50 (PC-3 [8]): < 1 nM

C[C@]12CC[C@H](O)C[C@H]1CC[C@@H]1[C@@H]2C(=O)[C@@H](O)[C@]2(C)[C@@H](c3ccc(=O)oc3)CC[C@]12O [BUFARENOGIN]
IC50 (A549 [1]): 3840 nM | IC50 [2]: 2680 nM | IC50 [3]: > 10000 nM | IC50 [4]: > 10000 nM | IC50 (SK-MEL-28 [5]): > 10000 nM | IC50 (B16-F10 [6]): > 10000 nM | IC50 (MCF7 [7]): 9300 nM | IC50 (PC-3 [8]): 7420 nM

CC(=O)OC[C@H]1CC[C@H]2[C@@H]3CC[C@@H]4C[C@@H](OC(C)=O)CC[C@]4(C)[C@H]3C(=O)[C@@H](OC(C)=O)[C@]12C
Activity (A549 [9]): inactive | Activity (SK-MEL-28 [10]): inactive | Activity (U-373MG ATCC): inactive | Activity (B16-F10 [11]): inactive | Activity (Hs 683): inactive | Activity (PC-3 [12]): inactive | Activity (MCF7 [13]): inactive | Activity (CT26.WT): inactive

C[C@@H]1O[C@@H](O[C@H]2CC[C@]3(C=O)[C@H]4CC[C@]5(C)[C@@H](c6ccc(=O)oc6)CC[C@]5(O)[C@@H]4CC[C@]3(O)C2)[C@H](O)[C@H](O)[C@H]1O[C@@H]1O[C@H](CO)[C@@H](O)[C@H](O)[C@H]1O [HELLEBRIN]
IC50 (A549 [1]): 6 nM | IC50 [2]: 7 nM | IC50 [3]: > 10000 nM | IC50 [4]: 36 nM | IC50 (SK-MEL-28 [5]): 68 nM | IC50 (B16-F10 [6]): > 10000 nM | IC50 (MCF7 [7]): 44 nM | IC50 (PC-3 [8]): 11 nM

COC(=O)[C@H]1CC[C@]2(O)[C@@H]3CC[C@@H]4C[C@@H](OC(C)=O)CC[C@]4(C)[C@H]3[C@H](OC(C)=O)C[C@]12C
Activity (A549 [9]): inactive | Activity (SK-MEL-28 [10]): inactive | Activity (U-373MG ATCC): inactive | Activity (B16-F10 [11]): inactive | Activity (Hs 683): inactive | Activity (PC-3 [12]): inactive | Activity (MCF7 [13]): inactive | Activity (CT26.WT): inactive
